In US20060286626A1, “Selective chromophores” (priority 2002, published 2006):
Entries after “also recorded” stand apart in the source; their conditions may differ.

Tests used:
Format in all cases: cell-based
[1] = system: sections of testis from rat; test: Fluorescent staining of testis sections from rat; conditions: for concentration dependence of staining in testis: 0.05-50 μg/ml; for cells stained / affinity in testis: 15 minutes incubation, concentration not given
Method: Testis tissues were obtained from a male Sprague-Dawley rat, which has been used as a control in another study. The tissues were fixed in 4% formaldehyde, imbedded in paraffin and sectioned into 4 μm thick slices before dewaxed and hydrated. Stock solutions containing 5 mg dye/ml DMSO and ethanol were made. These were diluted to 0.05, 0.5, 5, 10, and 50 μg/ml with water. At the time of the experiment, 100 μl from each solution was added to the sections, respectively. The sections were incubated for 15 minutes before the excess dye was removed by washing with water.
To se if and if so, the position of benzosuccinimidyl as a substituent alters the affinity of the dyes testis was stained with the two PASU dyes.
(§1) Fluorescence microscopic experiments were performed with a Zeizz (West Germany) microscope equipped with Plan Neofuar 40/0.9 I mm Ph3 and Plan Neofuar 25/0.8 W-Oel Ph2 objectives. A Winder M35 camera was used to obtain the microscopic images.

[2] = system: small intestine sections from rats; test: Fluorescent staining of small intestine sections from rat
Source text: Derivatives of Nile Red (FIG. 1) were synthesized and their staining of testis and small intestine sections from rats were studied. Nile Red is a member of benzophenoxazine compounds that provide a family of fluorescent dyes, which can be used, for labelling biological molecules in various applications. The phenoxazine dyes tend to have a large Stokes' shift of 80-100 nm. Nile Red is a highly fluorescent dye, which absorbs energy above 550 nm. Consequently it has mainly been used for lipid staining but also as a solvatrochromic probe to measure the solvent strength of several liquids.
as §1

[3] = system: human cell line of fibro sarcom, HT80; test: Staining of human fibro sarcoma cells; conditions: live HT80 cells, 5 μg/ml, without Triton-x
Source text: The positively charged part of the molecule might bind to the anionic phosphate group of phospholipids present in the plasma membrane. Since the PASU dyes are uncharged and relatively small molecules they have the ability to pass through the outer layer of the cells. […] To answer the question of what the dyes have affinity for further investigations have to be performed. Furthermore the dyes can be used for detection of receptors of cells. […] By adding a substance that induce conformational changes of the receptor which result in that the dye fit to the receptor, or use a dye with a substituent that fit in the inactivated receptor, the targets, receptors, can be detected as small fluorescent particles, so called pits. Thus, the dyes can be used to detect receptors and follow conformational changes of the receptor, activation-inactivation of receptor.
The stock solutions of the dyes were diluted with PBS or PBS+Triton-x to 5 μg/ml when added to both fixed and unfixed mature fibro sarcoma cells, cell line HT 80. Due to lack of time only the live cells untreated with Triton-x are discussed in the result.

In the case of CN(C)c1ccc2nc3c4cc(OCCCN)ccc4c(=O)cc-3oc2c1 [PA-2, 2-(3-Amino-propoxy)-9-dimethylamino-benzo[a]phenoxazine-5-one], the “concentration dependence of staining in testis” value [1] is reported as “the concentration of the dye added to the tissue determined which cells that were stained”, the “cells stained / affinity in testis” value [1] is reported as “stains stem cells selectively; also recorded: stains stem cells and spermatocytes; also recorded: high affinity for stem cells and spermatocytes; also recorded: has affinity for stem cells at low concentrations” and the “cells stained in testis” value ([1]; dye 0.05 μg/ml) is reported as “only stem cells were stained”. For the same molecule, the “cells stained in testis” value ([1]; dye 0.5 μg/ml) was “germ cells and spermatides fluoresced as well”, the “cells stained in testis” value ([1]; dye 10 μg/ml) was “spermatocytes were stained as well” and the “structures stained in small intestine” value ([2]; slices of small intestine from rat) was “all nucleuses”.
For CN(C)c1ccc2nc3c4cc(OCCCN5C(=O)c6ccccc6C5=O)ccc4c(=O)cc-3oc2c1 [PASU-1, 1-[3-(9-Dimethylamino-5-oxo-5H-benzo[a]phenoxazine-2-yloxy)-propyl]-isoindole-1,3-dione], the “cells stained / affinity in testis” value [1] was “does not have any affinity”.
CN(C)c1ccc2nc3c4cc(OCCCN5C(=O)c6ccccc6C5=O)ccc4c(=O)cc-3oc2c1 [PASU-2, 2-[3-(9-Dimethylamino-5-oxo-5H-benzo[a]phenoxazine-2-yloxy)-propyl]-isoindole-1,3-dione] was tested, and the “cells stained / affinity in testis” value [1] was “stains spermatides and spermatozoa; also recorded: stain different cells and parts of cells; also recorded: has preferences to sperms and spermatides; also recorded: binds to spermatides and spermatozoa”, the “concentration dependence of staining in small intestine” value ([2]; small intestine from rat) was “differs a lot with the concentration of dye” and the “part of the cell stained” value [3] was “stains the cytoplasm but not the nucleus”.
In the case of CN(C)c1ccc2nc3c4cc(OCCCN5C(=O)c6ccccc6C5=O)ccc4c(=O)cc-3oc2c1 [PASU-3, 3-[3-(9-Dimethylamino-5-oxo-5H-benzo[a]phenoxazine-2-yloxy)-propyl]-isoindole-1,3-dione], the “cells stained / affinity in testis” value [1] is reported as “stain different cells and parts of cells; also recorded: stains stem cells but not spermatides and spermatozoa”.
For CN(C)c1ccc2nc3c4cc(OCCC[N+](C)(C)C)ccc4c(=O)cc-3oc2c1 [PATM-2, 9-Dimethylamino-2-(trimethylammonium-propoxy)-benzo[a]phenoxazin-5-one], the “concentration dependence of staining in testis” value [1] was “no concentration dependence”, the “cells stained / affinity in testis” value [1] was “stains germ cells” and the “part of the cell stained” value [3] was “stains the plasma membranes of the cells”. The “permeability of the plasma membrane” value [3] was “does not reach into the cytoplasm of the cells”.
